# Assay results published in patent US8686150B2 (Sanofi, priority 2011, dated 2014).
# Biological target: T1, human full-length recombinant PKC βII (Homo sapiens, UniProt P05771)
# T1 construct: Active human full-length recombinant PKC βII; purchased Invitrogen GmbH, Darmstadt, Germany
# Test: Determination of PKC βII inhibition (Caliper mobility-shift kinase assay, Fluorescein-RFARKGSLRQKNV peptide substrate)
# Type: biochemical
# Settings: example compounds at a final concentration of 1.14 μM (±0.15 μM)
# Procedure, shortened: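 Compounds were tested at 1.14 μM final. Enzyme was activated by PS, DAG and CaCl2 in Hepes pH 7.4 with MgCl2, with substrate 3 μM and ATP 120 μM as pre-mix concentrations. After 60 min at 32 °C and an EDTA stop, Caliper separation gave fractional turnover, which was normalised to no-compound and no-enzyme controls.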
# T1 sequence (P05771 1-673 isoform P05771-2): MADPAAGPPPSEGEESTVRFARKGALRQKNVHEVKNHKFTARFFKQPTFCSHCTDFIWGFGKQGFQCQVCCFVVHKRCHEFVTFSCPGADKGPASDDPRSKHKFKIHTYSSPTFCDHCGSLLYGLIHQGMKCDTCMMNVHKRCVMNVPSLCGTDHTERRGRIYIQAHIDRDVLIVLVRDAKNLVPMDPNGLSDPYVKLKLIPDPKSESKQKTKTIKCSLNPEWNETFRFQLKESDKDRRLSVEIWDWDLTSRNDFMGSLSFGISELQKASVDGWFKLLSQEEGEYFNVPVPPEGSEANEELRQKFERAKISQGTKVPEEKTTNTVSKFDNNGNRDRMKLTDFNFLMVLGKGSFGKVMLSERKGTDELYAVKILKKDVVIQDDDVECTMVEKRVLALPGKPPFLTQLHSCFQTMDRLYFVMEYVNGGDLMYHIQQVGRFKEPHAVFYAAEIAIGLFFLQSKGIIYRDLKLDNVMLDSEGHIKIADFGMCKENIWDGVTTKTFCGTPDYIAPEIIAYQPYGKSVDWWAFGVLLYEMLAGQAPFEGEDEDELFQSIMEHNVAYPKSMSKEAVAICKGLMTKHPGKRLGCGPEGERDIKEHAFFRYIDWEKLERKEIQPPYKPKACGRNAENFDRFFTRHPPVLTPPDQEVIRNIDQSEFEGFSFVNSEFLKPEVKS
row,inhibition at 1.14 µM [%],SMILES
1,87,"Cc1n[nH]c2nc(-c3ccc(O)cc3)cc(C(=O)NCC(C)(C)CN)c12 [Example 270, 6-(4-Hydroxy-phenyl)-3-methyl-1H-pyrazolo[3,4-b]pyridine-4-carboxylic acid (3-amino-2,2-dimethyl-propyl)-amide]"
2,66,"Cc1n[nH]c2nc(-c3ccc(O)cc3)cc(C(=O)N3CCN(CCS(C)(=O)=O)CC3)c12 [Example 271, [6-(4-Hydroxy-phenyl)-3-methyl-1H-pyrazolo[3,4-b]pyridin-4-yl]-[4-(2-methanesulfonyl-ethyl)-piperazin-1-yl]-methanone]"
3,85,"Cc1n[nH]c2nc(-c3ccc(O)cc3)cc(C(=O)N(C)C3CCN(C)CC3)c12 [Example 272, 6-(4-Hydroxy-phenyl)-3-methyl-1H-pyrazolo[3,4-b]pyridine-4-carboxylic acid methyl-(1-methyl-piperidin-4-yl)-amide]"
4,83,"CCN1CCCC(NC(=O)c2cc(-c3ccc(O)cc3)nc3[nH]nc(C)c23)C1 (stereo not shown) [Example 273, 6-(4-Hydroxy-phenyl)-3-methyl-1H-pyrazolo[3,4-b]pyridine-4-carboxylic acid (1-ethyl-piperidin-3-yl)-amide]"
5,88,"Cc1n[nH]c2nc(-c3ccc(O)cc3)cc(C(=O)N3C[C@]4(C)CN(C)C[C@](C)(C3)C4O)c12 (stereo partly drawn) [Example 274, [6-(4-Hydroxy-phenyl)-3-methyl-1H-pyrazolo[3,4-b]pyridin-4-yl]-((1S,5R)-9-hydroxy-1,5,7-trimethyl-3,7-diaza-bicyclo[3.3.1]non-3-yl)-methanone]"
6,89,"Cc1n[nH]c2nc(-c3ccc(O)cc3)cc(C(=O)NC3CCCN(C)C3)c12 (stereo not shown) [Example 275, 6-(4-Hydroxy-phenyl)-3-methyl-1H-pyrazolo[3,4-b]pyridine-4-carboxylic acid (1-methyl-piperidin-3-yl)-amide]"
7,66,"Cc1n[nH]c2nc(-c3ccc(O)cc3)cc(C(=O)NC3CC(C)(C)N(C)C(C)(C)C3)c12 [Example 276, 6-(4-Hydroxy-phenyl)-3-methyl-1H-pyrazolo[3,4-b]pyridine-4-carboxylic acid (1,2,2,6,6-pentamethyl-piperidin-4-yl)-amide]"
8,35,"CC(=O)N1CCC(NC(=O)c2cc(-c3ccc(O)cc3)nc3[nH]nc(C)c23)CC1 [Example 277, 6-(4-Hydroxy-phenyl)-3-methyl-1H-pyrazolo[3,4-b]pyridine-4-carboxylic acid (1-acetyl-piperidin-4-yl)-amide]"
9,68,"Cc1n[nH]c2nc(-c3ccc(O)cc3)cc(C(=O)NCC3CCC(=O)N3)c12 (stereo not shown) [Example 278, 6-(4-Hydroxy-phenyl)-3-methyl-1H-pyrazolo[3,4-b]pyridine-4-carboxylic acid (5-oxo-pyrrolidin-2-ylmethyl)-amide]"
10,78,"Cc1n[nH]c2nc(-c3ccc(O)cc3)cc(C(=O)NC3CCN(C4CCCCC4)CC3)c12 [Example 279, 6-(4-Hydroxy-phenyl)-3-methyl-1H-pyrazolo[3,4-b]pyridine-4-carboxylic acid (1-cyclohexyl-piperidin-4-yl)-amide]"
11,88,"Cc1n[nH]c2nc(-c3ccc(O)cc3)cc(C(=O)N3CCN(C(=O)C4CCCO4)CC3)c12 (stereo not shown) [Example 280, [6-(4-Hydroxy-phenyl)-3-methyl-1H-pyrazolo[3,4-b]pyridin-4-yl]-[4-(tetrahydro-furan-2-carbonyl)-piperazin-1-yl]-methanone]"
12,85,"CCN1CCCN(C(=O)c2cc(-c3ccc(O)cc3)nc3[nH]nc(C)c23)CC1 [Example 281, (4-Ethyl-[1,4]diazepan-1-yl)-[6-(4-hydroxy-phenyl)-3-methyl-1H-pyrazolo[3,4-b]pyridin-4-yl]-methanone]"
13,73,"Cc1n[nH]c2nc(-c3ccc(O)cc3)cc(C(=O)N3CC4CCCN4CC3c3ccccc3)c12 (stereo not shown) [Example 282, [6-(4-Hydroxy-phenyl)-3-methyl-1H-pyrazolo[3,4-b]pyridin-4-yl]-(3-phenyl-hexahydro-pyrrolo[1,2-a]pyrazin-2-yl)-methanone]"
14,45,"COC(=O)C1(N)CCN(C(=O)c2cc(-c3ccc(O)cc3)nc3[nH]nc(C)c23)CC1 [Example 283, 4-Amino-1-[6-(4-hydroxy-phenyl)-3-methyl-1H-pyrazolo[3,4-b]pyridine-4-carbonyl]-piperidine-4-carboxylic acid methyl ester]"
15,66,"Cc1n[nH]c2nc(-c3ccc(O)cc3)cc(C(=O)N3CC4CCCN4CC3C)c12 (stereo not shown) [Example 284, [6-(4-Hydroxy-phenyl)-3-methyl-1H-pyrazolo[3,4-b]pyridin-4-yl]-(3-methyl-hexahydro-pyrrolo[1,2-a]pyrazin-2-yl)-methanone]"
16,76,"Cc1n[nH]c2nc(-c3ccc(O)cc3)cc(C(=O)N3CC4CCCCN4CC3C)c12 (stereo not shown) [Example 285, [6-(4-Hydroxy-phenyl)-3-methyl-1H-pyrazolo[3,4-b]pyridin-4-yl]-(3-methyl-octahydro-pyrido[1,2-a]pyrazin-2-yl)-methanone]"

row,inhibition at 1.14 µM [%],SMILES
1,62,"Cc1n[nH]c2nc(-c3ccc(O)cc3)cc(C(=O)NCC(C)(CN3CCCC3)c3ccccn3)c12 (stereo not shown) [Example 286, 6-(4-Hydroxy-phenyl)-3-methyl-1H-pyrazolo[3,4-b]pyridine-4-carboxylic acid (2-methyl-2-pyridin-2-yl-3-pyrrolidin-1-yl-propyl)-amide]"
2,34,"Cc1n[nH]c2nc(-c3ccc(O)cc3)cc(C(=O)N3CCC(CN4CCCCC4)CC3)c12 [Example 287, [6-(4-Hydroxy-phenyl)-3-methyl-1H-pyrazolo[3,4-b]pyridin-4-yl]-(4-piperidin-1-ylmethyl-piperidin-1-yl)-methanone]"
3,59,"Cc1n[nH]c2nc(-c3ccc(O)c(F)c3)cc(C(=O)NC3CC4(CC(N)C4)C3)c12 (stereo not shown) [Example 288, 6-(3-Fluoro-4-hydroxy-phenyl)-3-methyl-1H-pyrazolo[3,4-b]pyridine-4-carboxylic acid (6-amino-spiro[3.3]hept-2-yl)-amide]"
4,84,"Cc1n[nH]c2nc(-c3ccc(O)c(F)c3)cc(C(=O)N3CC4CNCC4C3)c12 (stereo not shown) [Example 289, [6-(3-Fluoro-4-hydroxy-phenyl)-3-methyl-1H-pyrazolo[3,4-b]pyridin-4-yl]-(hexahydro-pyrrolo[3,4-c]pyrrol-2-yl)-methanone]"
5,96,"Cc1n[nH]c2nc(-c3ccc(O)c(F)c3)cc(C(=O)N3CCN[C@@H](C)C3)c12 [Example 290, [6-(3-Fluoro-4-hydroxy-phenyl)-3-methyl-1H-pyrazolo[3,4-b]pyridin-4-yl]-((S)-3-methyl-piperazin-1-yl)-methanone]"
6,89,"CCC[C@@H]1CN(C(=O)c2cc(-c3ccc(O)c(F)c3)nc3[nH]nc(C)c23)CCN1 [Example 291, [6-(3-Fluoro-4-hydroxy-phenyl)-3-methyl-1H-pyrazolo[3,4-b]pyridin-4-yl]-((R)-3-propyl-piperazin-1-yl)-methanone]"
7,77,"Cc1n[nH]c2nc(-c3ccc(O)c(F)c3)cc(C(=O)N3CC[C@H](N)C3)c12 [Example 292, ((S)-3-Amino-pyrrolidin-1-yl)-[6-(3-fluoro-4-hydroxy-phenyl)-3-methyl-1H-pyrazolo[3,4-b]pyridin-4-yl]-methanone]"
8,89,"CCC[C@H]1CN(C(=O)c2cc(-c3ccc(O)c(F)c3)nc3[nH]nc(C)c23)CCN1 [Example 293, [6-(3-Fluoro-4-hydroxy-phenyl)-3-methyl-1H-pyrazolo[3,4-b]pyridin-4-yl]-((S)-3-propyl-piperazin-1-yl)-methanone]"
9,85,"CCCC[C@H]1CN(C(=O)c2cc(-c3ccc(O)c(F)c3)nc3[nH]nc(C)c23)CCN1 [Example 294, ((S)-3-Butyl-piperazin-1-yl)-[6-(3-fluoro-4-hydroxy-phenyl)-3-methyl-1H-pyrazolo[3,4-b]pyridin-4-yl]-methanone]"
10,94,"CC[C@H]1CN(C(=O)c2cc(-c3ccc(O)c(F)c3)nc3[nH]nc(C)c23)CCN1 [Example 295, ((S)-3-Ethyl-piperazin-1-yl)-[6-(3-fluoro-4-hydroxy-phenyl)-3-methyl-1H-pyrazolo[3,4-b]pyridin-4-yl]-methanone]"
11,32,"Cc1n[nH]c2nc(-c3ccc(O)c(F)c3)cc(C(=O)N3CCNC4CS(=O)(=O)CC43)c12 (stereo not shown) [Example 296, (6,6-Dioxo-octahydro-6lambda6-thieno[3,4-b]pyrazin-1-yl)-[6-(3-fluoro-4-hydroxy-phenyl)-3-methyl-1H-pyrazolo[3,4-b]pyridin-4-yl]-methanone]"
12,34,"COC(=O)[C@H]1CN(C(=O)c2cc(-c3ccc(O)c(F)c3)nc3[nH]nc(C)c23)CCN1 [Example 297, (R)-4-[6-(3-Fluoro-4-hydroxy-phenyl)-3-methyl-1H-pyrazolo[3,4-b]pyridine-4-carbonyl]-piperazine-2-carboxylic acid methyl ester]"
13,68,"COC[C@H]1CN(C(=O)c2cc(-c3ccc(O)c(F)c3)nc3[nH]nc(C)c23)CCN1 [Example 298, [6-(3-Fluoro-4-hydroxy-phenyl)-3-methyl-1H-pyrazolo[3,4-b]pyridin-4-yl]-((R)-3-methoxymethyl-piperazin-1-yl)-methanone]"
14,92,"Cc1n[nH]c2nc(-c3ccc(O)c(F)c3)cc(C(=O)NC3CC4(CCNCC4)c4ccccc43)c12 (stereo not shown) [Example 299, 6-(3-Fluoro-4-hydroxy-phenyl)-3-methyl-1H-pyrazolo[3,4-b]pyridine-4-carboxylic acid (2,3-dihydro-spiro[1H-indene-1,4′-piperidin]-3-yl)-amide]"
15,74,"Cc1n[nH]c2nc(-c3ccc(O)c(F)c3)cc(C(=O)N3CCNCC3Cc3ccccc3)c12 (stereo not shown) [Example 300, (2-Benzyl-piperazin-1-yl)-[6-(3-fluoro-4-hydroxy-phenyl)-3-methyl-1H-pyrazolo[3,4-b]pyridin-4-yl]-methanone]"
